In PMC9090609 (RSC Advances, 2018):

Tested on: E.c.-ALDC (acetolactate decarboxylase from Enterobacter cloacae)
Test: circular dichroism at […] nm, formation of
Type: biochemical
Conditions: pH 6, 30 °C; racemic substrate 5.3-53.4 mM

**Q.** How did the Km turn out when `CC(=O)C(C)(O)C(=O)O` (racemic) [(±)-AL] was run?
**A.** 12.2 mM
